Laboratory results as given in patent US20250074871A1, “PHENETHYLAMINES AND METHODS OF PREPARATION THEREOF” (priority 2022, published 2025).
“And” between values parts separate entries of the source, which are not always exact repeats. Equal entries are not always repeated. Where two headings read alike, the source gives them in different places.

Legend:
[1] = plasma and brain PK in rat; type: in vivo; conditions: for Kp: brain; for clearance: read-out: Cltot (converted); for half-life: read-out: T1/2 Vz (converted); for Vd: read-out: Vz
From the text: (§1) Table 7a and Table 7b summarize, among other things, the observed plasma and Brain P K properties in animals, and the observed plasma and Brain P K properties predicted in humans, for compound 109 in Table 7a and compound 93 for Table 7b: […]

5-HT2A receptor = target: T1, 5-HT2A receptor (Homo sapiens, UniProt P28223); assay: 5-HT2A Gq dissociation BRET functional assay; type: cell-based; conditions: for 5-HT2A BRET Eff %: normalized to % 5-HT stimulation
T1 construct: expressed in transfected cells; host or cells: HEK293T
T1 sequence (P28223 whole entry): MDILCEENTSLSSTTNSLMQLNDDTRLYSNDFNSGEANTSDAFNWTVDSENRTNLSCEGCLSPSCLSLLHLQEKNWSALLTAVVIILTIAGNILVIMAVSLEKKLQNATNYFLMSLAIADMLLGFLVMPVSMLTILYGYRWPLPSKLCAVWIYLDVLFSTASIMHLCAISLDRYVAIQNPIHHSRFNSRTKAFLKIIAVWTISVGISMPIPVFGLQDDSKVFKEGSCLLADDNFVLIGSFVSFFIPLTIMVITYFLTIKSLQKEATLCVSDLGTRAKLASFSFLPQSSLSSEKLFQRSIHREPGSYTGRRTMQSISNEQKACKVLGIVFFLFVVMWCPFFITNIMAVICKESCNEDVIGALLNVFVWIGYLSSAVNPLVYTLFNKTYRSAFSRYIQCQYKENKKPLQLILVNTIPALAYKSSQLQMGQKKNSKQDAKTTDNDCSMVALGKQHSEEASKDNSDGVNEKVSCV

[2] = in vitro hepatocyte clearance, monkey; type: in vitro ADME; conditions: Monkey hepatocytes; for hepatocyte CLint: read-out: In vitro Clint (μL/min/10^6 cells); for half-life: read-out: In vitro T1/2; for CLint scaled: read-out: Scale-up Clint
Method: (§2) Additional experimentation was performed on compound 109. Table 6 summarizes, among other things, the anticipated hepatic clearance of compound 109 in various species, as specified in Table 6 and as determined by calculating the in vitro hepatocyte clearance over time and scaling such rate with such species' hepatocyte count and the anticipated liver blood flow rate in such species.

hepatocyte [3] = assay: in vitro hepatocyte clearance, monkey; type: in vitro ADME; conditions: Monkey
Method: as §2

[4] = in vitro hepatocyte clearance, dog; type: in vitro ADME; conditions: for hepatocyte CLint / half-life: Dog hepatocytes; for hepatocyte CLint: read-out: In vitro Clint (μL/min/10^6 cells); for half-life: read-out: In vitro T1/2; for CLint scaled: dog, hepatocytes, read-out: Scale-up Clint
Method: as §2

hepatocyte [5] = assay: in vitro hepatocyte clearance, dog; type: in vitro ADME; conditions: Dog
Method: as §2

plasma PK in dog = type: in vivo; conditions: for clearance / half-life / Vd: dog; for clearance: read-out: Cltot (converted); for half-life: read-out: T1/2 Vz (converted); for Vd: read-out: Vz
From the text: as §1

5-HT2C receptor = target: T2, 5-HT2C receptor (Homo sapiens, UniProt P28335); assay: cell-based; type: cell-based; conditions: for 5-HT2C BRET Eff %: normalized to % 5-HT stimulation
T2 construct: expressed in transfected cells; host or cells: HEK293T
T2 sequence (P28335 33-458): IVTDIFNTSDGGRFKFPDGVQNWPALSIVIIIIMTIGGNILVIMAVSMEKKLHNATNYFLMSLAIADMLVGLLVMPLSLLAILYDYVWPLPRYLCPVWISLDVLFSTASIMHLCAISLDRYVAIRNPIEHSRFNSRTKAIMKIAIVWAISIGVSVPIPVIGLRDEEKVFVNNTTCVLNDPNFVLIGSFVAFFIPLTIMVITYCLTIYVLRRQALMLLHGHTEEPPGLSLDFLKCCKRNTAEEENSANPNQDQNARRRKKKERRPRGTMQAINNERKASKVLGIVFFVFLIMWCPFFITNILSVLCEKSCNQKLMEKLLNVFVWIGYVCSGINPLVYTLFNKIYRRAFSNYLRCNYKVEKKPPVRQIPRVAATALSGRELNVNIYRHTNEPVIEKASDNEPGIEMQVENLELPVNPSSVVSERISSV

5-HT1D = 5-HT1D (Homo sapiens, UniProt P28221); assay: 5-HT receptor activity panel (Table 3); type: cell-based; conditions: Table 3
Chain of 5-HT1D (P28221 whole entry, species assumed): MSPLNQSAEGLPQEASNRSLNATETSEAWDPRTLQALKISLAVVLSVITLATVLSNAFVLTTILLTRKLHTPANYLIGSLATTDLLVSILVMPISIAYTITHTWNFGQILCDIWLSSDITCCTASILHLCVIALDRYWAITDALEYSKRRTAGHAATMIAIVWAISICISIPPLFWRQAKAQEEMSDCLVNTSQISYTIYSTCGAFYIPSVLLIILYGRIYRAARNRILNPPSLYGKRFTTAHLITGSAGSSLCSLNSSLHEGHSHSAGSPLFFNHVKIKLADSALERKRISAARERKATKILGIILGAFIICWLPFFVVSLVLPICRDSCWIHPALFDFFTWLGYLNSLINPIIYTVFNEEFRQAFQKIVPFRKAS

[6] = in vitro hepatocyte clearance, mouse; type: in vitro ADME; conditions: Mouse hepatocytes; for hepatocyte CLint: read-out: In vitro Clint (μL/min/10^6 cells); for half-life: read-out: In vitro T1/2; for CLint scaled: read-out: Scale-up Clint
Method: as §2

hepatocyte [7] = assay: in vitro hepatocyte clearance, mouse; type: in vitro ADME; conditions: Mouse
Method: as §2

5-HT5A = 5-HT5A (Homo sapiens, UniProt P47898); assay: 5-HT receptor activity panel (Table 3); type: cell-based; conditions: Table 3
Chain of 5-HT5A (P47898 whole entry, species assumed): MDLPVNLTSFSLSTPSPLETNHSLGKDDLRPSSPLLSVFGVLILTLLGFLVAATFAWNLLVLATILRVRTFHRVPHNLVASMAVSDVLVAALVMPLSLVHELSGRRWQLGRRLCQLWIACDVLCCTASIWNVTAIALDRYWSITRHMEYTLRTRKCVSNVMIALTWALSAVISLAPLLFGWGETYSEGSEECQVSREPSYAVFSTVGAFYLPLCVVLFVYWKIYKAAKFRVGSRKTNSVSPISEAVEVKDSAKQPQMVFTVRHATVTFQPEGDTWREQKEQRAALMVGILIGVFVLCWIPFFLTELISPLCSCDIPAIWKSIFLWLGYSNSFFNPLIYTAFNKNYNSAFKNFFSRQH

[8] = target: T3, human ether-a-go-go-related gene (hERG) K+ channel (Homo sapiens, UniProt Q12809); assay: Eurofins hERG Qube APC Assay; type: cell-based; conditions: for IC50 (hERG)/EC50 (5-HT2A) ratio: Table 4
T3 construct: Eurofins
T3 sequence (Q12809 whole entry): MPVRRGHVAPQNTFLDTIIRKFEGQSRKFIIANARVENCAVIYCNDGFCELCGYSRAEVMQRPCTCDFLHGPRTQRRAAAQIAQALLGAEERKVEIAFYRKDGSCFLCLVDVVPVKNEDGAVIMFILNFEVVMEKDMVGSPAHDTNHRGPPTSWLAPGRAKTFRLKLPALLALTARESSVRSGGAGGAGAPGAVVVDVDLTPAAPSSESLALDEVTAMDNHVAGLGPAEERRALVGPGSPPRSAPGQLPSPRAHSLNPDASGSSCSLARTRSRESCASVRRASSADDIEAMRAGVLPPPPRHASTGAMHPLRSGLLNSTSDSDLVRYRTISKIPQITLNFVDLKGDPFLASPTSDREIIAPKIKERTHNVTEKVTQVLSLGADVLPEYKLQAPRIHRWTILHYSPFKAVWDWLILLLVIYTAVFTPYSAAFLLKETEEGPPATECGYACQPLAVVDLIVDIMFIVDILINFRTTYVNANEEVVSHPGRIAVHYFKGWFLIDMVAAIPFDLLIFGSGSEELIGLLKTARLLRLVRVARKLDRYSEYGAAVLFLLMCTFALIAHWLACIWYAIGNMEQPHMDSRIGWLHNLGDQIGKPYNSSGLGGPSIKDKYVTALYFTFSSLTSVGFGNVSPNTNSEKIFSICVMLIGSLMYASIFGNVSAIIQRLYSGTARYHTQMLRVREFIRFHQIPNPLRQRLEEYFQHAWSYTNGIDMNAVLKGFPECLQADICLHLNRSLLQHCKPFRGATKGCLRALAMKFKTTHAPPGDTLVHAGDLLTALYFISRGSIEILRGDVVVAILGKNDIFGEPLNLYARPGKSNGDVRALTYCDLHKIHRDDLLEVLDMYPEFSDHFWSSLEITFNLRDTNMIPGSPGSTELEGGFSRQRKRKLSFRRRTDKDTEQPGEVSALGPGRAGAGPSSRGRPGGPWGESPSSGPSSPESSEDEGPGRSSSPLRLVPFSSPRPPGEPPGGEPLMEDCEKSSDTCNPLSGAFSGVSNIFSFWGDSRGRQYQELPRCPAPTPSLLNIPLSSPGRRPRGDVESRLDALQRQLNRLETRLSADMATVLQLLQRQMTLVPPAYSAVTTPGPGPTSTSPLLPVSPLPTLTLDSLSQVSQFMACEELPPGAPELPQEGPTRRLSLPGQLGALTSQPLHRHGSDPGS
From the text: As used herein and unless otherwise specified, the term “hERG risk” refers to the risk of a compound potentially inhibiting the human ether-a-go-go-related gene (hERG) K^+ channel, thereby leading to QT prolongation.
As a result of, many compounds disclosed in Table 1 and Table 2 were screened for the potential of “hERG risk” using pharmacological assays (e.g. Eurofins™ hERG Qube APC Assay). […].

5-HT4 = 5-HT4 (Homo sapiens, UniProt Q13639); assay: 5-HT receptor activity panel (Table 3); type: cell-based; conditions: Table 3
Chain of 5-HT4 (Q13639 whole entry, species assumed): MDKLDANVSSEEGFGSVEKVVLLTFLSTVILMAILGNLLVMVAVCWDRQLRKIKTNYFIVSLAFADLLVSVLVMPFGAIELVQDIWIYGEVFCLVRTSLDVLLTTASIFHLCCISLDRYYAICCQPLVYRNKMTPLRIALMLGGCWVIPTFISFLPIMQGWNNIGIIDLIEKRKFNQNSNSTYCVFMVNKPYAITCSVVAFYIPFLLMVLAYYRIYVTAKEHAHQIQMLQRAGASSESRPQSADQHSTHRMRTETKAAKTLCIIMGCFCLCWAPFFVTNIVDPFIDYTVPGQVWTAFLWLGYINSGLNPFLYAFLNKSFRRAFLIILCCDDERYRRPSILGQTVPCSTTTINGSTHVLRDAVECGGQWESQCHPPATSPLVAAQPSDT

[9] = test system: α 1a, α 2a, Kappa (KOP), μ (MOP), 5-HT transporter (SERT); assay: follow up functional assays on SafetyScreen44 hits
Method: Various compounds disclosed herein were subjected to an in vitro SafetyScreen44™ panel for identifying off-target activity. Compounds of interest that are identified in the panel are then tested in follow up functional assays to identify if such compounds have a significant off-target risk. […] It is predicted that other compounds share similar characteristics with compound 109 and also lack of the off-target activity.

[10] = test system: olfactory bulbectomized rats; assay: locomotor/behavioral activity in olfactory bulbectomized rats; type: in vivo, rat; conditions: single intraperitoneal dose, FIG. 5
Method: (§3) Additional experimentation was also done on compound 109. Namely, an intraperitoneal dose of up to 30 mg/kg of compound 109 and various reference compounds were delivered into healthy rat subjects and surgery induced abnormal rat subjects (olfactory bulbectomized rats). […] Without being bound by theory, it is believed that these observations are a result of long lasting neuroplasticity effects of compound 109 on surgery induced abnormal rat subjects. FIG. 5 summarizes the results of this experiment. Using psilocybin as a comparative psychedelic, the results of this experiment support the notion that compound 109 provides sustainable acute antidepressant effects. Note that “VEH” refers to vehicle, and “PSIL” refers to psilocybin, in FIG. 5.

healthy rat subjects = assay: locomotor activity test in healthy rats; type: in vivo; conditions: intraperitoneal dose of up to 30 mg/kg
Method: as §3

[11] = Table 2, at least three replicate trials, read-out: 5-HT2C BRET EC50
[12] = Table 3 panel, read-out: 5-HT2C EC50

COc1cc(C(F)(F)F)ccc1CCNCc1ccccc1O [Cpd #93]
Kp ([1]; rat, read-out: Brain/plasma Ratio): 19.6
clearance ([1]; rat, plasma): 127 mL/min/kg
half-life ([1]; rat, plasma): 82.8 min
Vd ([1]; rat, plasma): 15.2 L/kg
EC50 (5-HT2A receptor; 5-HT2A BRET EC50 (nM), Table 2, at least three replicate trials): 0.7 nM and 1.17 nM
EC50 (5-HT2A receptor; 5-HT2A EC50, nM, Table 3 panel): 0.3 nM
EC50 (5-HT2A receptor; EC50 BRET 2A, Table 4, unit inferred): 1.2 nM
5-HT2A BRET Eff % (5-HT2A receptor; Table 2): 96% and 91%
5-HT2A Eff, % (5-HT2A receptor; Table 3 panel): 96%
hepatocyte CLint [2]: 467 µL/min/1e6 cells
half-life [2]: 2.97 min
CLint scaled [2]: 1680 mL/min/kg
Predicted hepatic CL (hepatocyte [3]): 42.50 mL/min/kg
hepatocyte CLint [4]: 337 µL/min/1e6 cells
half-life [4]: 4.11 min
CLint scaled [4]: 2320 mL/min/kg
Predicted hepatic CL (hepatocyte [5]): 30.49 mL/min/kg
clearance (plasma PK in dog): 53.1 mL/min/kg
half-life (plasma PK in dog): 99.6 min
Vd (plasma PK in dog): 7.7 L/kg
EC50 (5-HT2C receptor; [11]): 1.1 nM and 1.3 nM
5-HT2C BRET Eff % (5-HT2C receptor; Table 2): 105% and 103%
5-HT2C Eff, % (5-HT2C receptor; Table 3 panel): 99%
EC50 (5-HT2C receptor; [12]): 1.5 nM
5-HT1D EC50, nM (5-HT1D): Not active
hepatocyte CLint [6]: < 614 µL/min/1e6 cells
half-life [6]: > 2.26 min
CLint scaled [6]: < 7250 mL/min/kg
Predicted hepatic CL (hepatocyte [7]): <88.90 mL/min/kg
5-HT5A EC50, nM (5-HT5A): Not active
IC50 [8]: 620 nM
IC50 (hERG)/EC50 (5-HT2A) ratio [8]: 517
5-HT4 EC50, nM (5-HT4): Not active

CSc1ccccc1CNCCc1ccc(C#N)cc1O [Cpd #109]
plasma t1/2 ([1]; healthy rat subjects (text b114)): less than an hour
bioavailability ([1]; plasma, rat, IM, read-out: IM f (%)): 92.8%
Kp ([1]; rat, read-out: Brain Plasma AUC Ratio): 2.18
clearance ([1]; rat, plasma): 53.4 mL/min/kg
half-life ([1]; rat, plasma): 126 min
Vd ([1]; rat, plasma): 9.37 L/kg
Follow up studies (off-target activity) [9]: No significant
Follow up studies (off-target activity) ([9]; listed as compound 109): does not possess significant off-target activity
EC50 (5-HT2A receptor; Table 2, at least three replicate trials, read-out: 5-HT2A BRET EC50): 5.1 nM
5-HT2A BRET Eff % (5-HT2A receptor; Table 2): 102%
5-HT2A Eff, % (5-HT2A receptor; Table 3 panel): 99%
EC50 (5-HT2A receptor; Table 3 panel, read-out: 5-HT2A EC50): 4.8 nM
EC50 (5-HT2A receptor; Table 4, unit inferred, read-out: EC50 BRET 2A): 4.8 nM
hepatocyte CLint [2]: 499 µL/min/1e6 cells
half-life [2]: 2.78 min
CLint scaled [2]: 1800 mL/min/kg
Hepatic Extraction Ratio (E) (hepatocyte [3]): 0.98
Predicted hepatic CL (hepatocyte [3]): 42.57 mL/min/kg
inhibition of abnormal behavioral activity [10]: significant and long lasting inhibition of abnormal behavioral activity
hepatocyte CLint [4]: 199 µL/min/1e6 cells
half-life [4]: 6.96 min
CLint scaled [4]: 1370 mL/min/kg
Hepatic Extraction Ratio (E) (hepatocyte [5]): 0.98
Predicted hepatic CL (hepatocyte [5]): 30.22 mL/min/kg
bioavailability (plasma PK in dog; Dog, IM, read-out: IM f (%)): 120%
clearance (plasma PK in dog): 39.7 mL/min/kg
half-life (plasma PK in dog): 78 min
Vd (plasma PK in dog): 4.33 L/kg
EC50 (5-HT2C receptor; [11]): 253 nM
5-HT2C BRET Eff % (5-HT2C receptor; Table 2): 114%
5-HT2C Eff, % (5-HT2C receptor; Table 3 panel): 110%
EC50 (5-HT2C receptor; [12]): 225 nM
5-HT1D Eff, % (5-HT1D): 6%
EC50 (5-HT1D; read-out: 5-HT1D EC50): 379 nM
effect on normal locomotor activity (healthy rat subjects): no suggestion that an intraperitoneal dose of up to 30 mg/kg of such compound affects the normal locomotor activity
hepatocyte CLint [6]: > 614 µL/min/1e6 cells
half-life [6]: < 2.26 min
CLint scaled [6]: > 7250 mL/min/kg
Hepatic Extraction Ratio (E) (hepatocyte [7]): >0.99
Predicted hepatic CL (hepatocyte [7]): >88.90 mL/min/kg
5-HT5A Eff, % (5-HT5A): −133%
EC50 (5-HT5A; read-out: 5-HT5A EC50): 12300 nM
IC50 [8]: 2900 nM
IC50 (hERG)/EC50 (5-HT2A) ratio [8]: 604
5-HT4 Eff, % (5-HT4): −3%
EC50 (5-HT4; read-out: 5-HT4 EC50): 0.2 nM
